The target in series [1] is T1, dΔS270A CuGE (inactive truncated deglycosylated variant) (Cerrena unicolor, UniProt A0A0A7EQR3, S286A).
T1 construct: truncated CuGE (residues G79-T458) corresponding to the catalytic domain only; His6 (C); TEV protease cleavage site (C); made in house; host or cells: Pichia pastoris X-33
Put plainly: Microscale thermophoresis (MST, LabelFree) binding of soluble ligands to dΔS270A. Here is the method: (§1) Binding affinities for the soluble ligands U^m4XX^-OH (O-UXXR, MEGAZYMES), MeGlcA (4-O-methyl-D-glucuronic acid, MM46686, Carbosynth, Crompton UK), and MeMeGlcA (4-O-methyl-D-glucopyranosyluronate, purchased from Institute of Chemistry, Slovak Academy of Sciences, Bratislava, Slovakia) were measured by MST. The protein stocks, dΔS207A and ΔWT, were adjusted to 200 nM with 100 mM sodium acetate buffer pH 5 supplemented with 0.1% Pluronic F-127. Ligand stocks (100 mM U^m4XX^-OH, 43 mM MeGlcA and 250 mM MeMeGlcA) were prepared in 100 mM sodium acetate buffer pH 5, and for each ligand a series of 16 1:1 dilutions was prepared using the same buffer. For the measurement, each ligand dilution was mixed with one volume of protein, which led to a final protein concentration of 100 nM and final ligand concentrations in the mM to nM range. After 10 min incubation followed by centrifugation at 10,000 × g for 10 min, the samples were loaded into Monolith NT.LabelFree zero-background capillaries (NanoTemper Technologies). The MST experiment was performed with a Monolith NT.LabelFree instrument (NanoTemper Technologies) at 25 °C using 30% LED power and medium MST power. […] Final ligand concentration ranges used in the analysis of the MST signal were: U^m4XX^-OH 25 mM to 1.53 μM, MeGlcA 10.8 mM to 656 nM and MeMeGlcA 15.6 mM to 3.81 μM. For each ligand-binding curve, data from at least three independently pipetted measurements were included in the analysis with the MO. Affinity Analysis software (version 2.3, NanoTemper Technologies) using the signal from an MST-on time of 5 s.
In general terms: In MST a laser heats a spot of the sample, and binding alters the fluorescence response.

Series [2] has as its system CuGE catalytic domain crystals. Put plainly: Crystal soaking with ligands. The class given is binding, Cerrena unicolor. Particulars: concentrations up to 0.5 M. Here is the method: The deglycosylated CuGE variants dWT and dΔS207A were both screened for crystallization. However, all crystals obtained contain the catalytic domain only, as crystals formed in experiments with the full-length enzyme (dWT) turned out to be a proteolytic fragment lacking the CBM1 and linker region (Δ*dWT). […] Crystallization and ligand soak conditions are summarized in Supplementary Table 1. The vast majority of crystals formed at 4 °C and with high molecular weight polymers (SOKALAN CP7, PEG 10,000 or PEG 8000) as precipitants. Crystals were cryoprotected by brief soaks in either reservoir or ligand stock solutions supplemented with 26% glycerol and flash-frozen in liquid nitrogen. […] A refinement protocol using the maximum-likelihood target, real-space refinement, refinement of coordinates, individual isotropic temperature factors and translation-liberation-screw (TLS) refinement using TLS groups determined by the PHENIX software was applied. […]

For series [3], the target named is T2, ΔWT CuGE (truncated, catalytic domain only) (Cerrena unicolor, UniProt A0A0A7EQR3).
T2 construct: truncated CuGE (residues G79-T458) corresponding to the catalytic domain only; His6 (C); TEV protease cleavage site (C); made in house; host or cells: Pichia pastoris X-33
Put plainly: Microscale thermophoresis (MST, LabelFree) binding of soluble ligands to ΔWT. The conditions noted are these: for Fnorm Average: MST. Here is the method: as §1

Series [4] in a line: Stability measurements: apparent thermal unfolding temperature (Ti) from intrinsic fluorescence, Tycho NT.6. The series is classed as physicochemical, Cerrena unicolor. Particulars: 20 mM sodium acetate buffer pH 5. Here is the method:
In order to evaluate the stability of the different CuGE variants apparent unfolding temperatures (Ti) were monitored based on changes in intrinsic fluorescence using a Tycho NT.6 instrument (NanoTemper Technologies). The measurements were made in 20 mM sodium acetate buffer pH 5, protein concentrations in the range 0.07–0.3 mg mL^−1.

The results in this text go back to article PMC7039992, “The structural basis of fungal glucuronoyl esterase activity on natural substrates” (Nature Communications, 2020).

Values joined by “and” are separate entries in the source; they are usually repeats but may differ in a detail not shown here. Equal entries are not always repeated. Some results are limits rather than exact numbers.

Consider `COC(=O)[C@H]1OC(O)[C@H](O)[C@@H](O)[C@@H]1OC` (stereo partly drawn) [MeMeGlcA, methyl ester of 4-O-methyl-D-glucuronic acid], for which the Kd – broadly, the concentration at which binding is half-saturated – in series [1] was over 10 mM. Also, the “Fnorm Average” value in series [1] (MST, ligand Conc 3.8147e-6 M) was 893.87; in series [1] (MST, ligand Conc 7.62939e-6 M) it was 892.81; in series [1] (MST, ligand Conc 1.52588e-5 M) it was 893.60; in series [1] (MST, ligand Conc 3.05176e-5 M), 893.00; in series [1] (MST, ligand Conc 6.10352e-5 M) it was 891.24; in series [1] (MST, ligand Conc 0.00012207 M), 892.80. Also, the “Fnorm Average” value was found to be 892.27 in series [1] (MST, ligand Conc 0.000244141 M); 892.23 in series [1] (MST, ligand Conc 0.000488281 M); 892.05 in series [1] (MST, ligand Conc 0.000976562 M); 893.14 in series [1] (MST, ligand Conc 0.00195312 M); 894.69 in series [1] (MST, ligand Conc 0.00390625 M); 894.83 in series [1] (MST, ligand Conc 0.0078125 M). The “Fnorm Average” value in series [1] (MST, ligand Conc 0.015625 M) worked out at 899.63. The “complex formation on crystal soak” value in series [2] is on record as “did not result in a complex”.
For the molecule `CO[C@H]1[C@H](O)[C@@H](O)[C@@H](O[C@H]2[C@H](O[C@@H]3CO[C@@H](O[C@H](CO)[C@H](O)[C@@H](O)CO)[C@H](O)[C@H]3O)OC[C@@H](O)[C@@H]2O)O[C@@H]1C(=O)O` [U^m4XX^-OH, aldotetrauronic acid], the “Fnorm Average” value amounted to 893.61 in series [1] (MST, ligand Conc 1.52588e-6 M); 893.69 in series [1] (MST, ligand Conc 3.05176e-6 M); 893.20 in series [1] (MST, ligand Conc 6.10352e-6 M); 894.05 in series [1] (MST, ligand Conc 1.2207e-5 M); 893.89 in series [1] (MST, ligand Conc 2.44141e-5 M); 895.55 in series [1] (MST, ligand Conc 4.88281e-5 M). Besides, the “Fnorm Average” value in series [1] (MST, ligand Conc 9.76563e-5 M) was 898.89; in series [1] (MST, ligand Conc 0.000195313 M) it was 901.02; in series [1] (MST, ligand Conc 0.000390625 M), 904.70; in series [1] (MST, ligand Conc 0.00078125 M), 908.26; in series [1] (MST, ligand Conc 0.0015625 M), 908.91; in series [1] (MST, ligand Conc 0.003125 M), 910.47. For the same molecule, the “Fnorm Average” value turned out to be 911.05 in series [1] (MST, ligand Conc 0.00625 M); 912.09 in series [1] (MST, ligand Conc 0.0125 M); 909.72 in series [1] (MST, ligand Conc 0.025 M); 893.29 in series [3] (ligand Conc 1.52588e-6 M); 893.55 in series [3] (ligand Conc 3.05176e-6 M); 893.63 in series [3] (ligand Conc 6.10352e-6 M). The “Fnorm Average” value in series [3] (ligand Conc 1.2207e-5 M) is reported as 892.18; in series [3] (ligand Conc 2.44141e-5 M) it was 892.73; in series [3] (ligand Conc 4.88281e-5 M), 894.37; in series [3] (ligand Conc 9.76563e-5 M) it was 893.73; in series [3] (ligand Conc 0.000195313 M) it was 893.94; in series [3] (ligand Conc 0.000390625 M), 894.62. Moreover, the “Fnorm Average” value in series [3] (ligand Conc 0.00078125 M) worked out at 893.24; in series [3] (ligand Conc 0.0015625 M) it was 896.88; in series [3] (ligand Conc 0.003125 M), 900.40; in series [3] (ligand Conc 0.00625 M), 905.36; in series [3] (ligand Conc 0.0125 M), 907.85; in series [3] (ligand Conc 0.025 M) it was 907.66. In addition, the equilibrium dissociation constant (Kd) in series [3] turned out to be 5 mM.
For `CO[C@@H]([C@H](O)[C@@H](O)C=O)[C@H](O)C(=O)O` [MeGlcA, 4-O-methyl-D-glucuronic acid], in series [1] (MST), the “dissociation constant, times higher compared to dΔS270A:U^m4XX^-OH” value is recorded as ~ 10 times. Further, the “Fnorm Average” value in series [1] (MST, ligand Conc 6.56128e-7 M) is given as 892.97; in series [1] (MST, ligand Conc 1.31226e-6 M), 893.37; in series [1] (MST, ligand Conc 2.62451e-6 M), 892.22; in series [1] (MST, ligand Conc 5.24902e-6 M), 893.19; in series [1] (MST, ligand Conc 1.0498e-5 M), 892.96; in series [1] (MST, ligand Conc 2.09961e-5 M), 892.61. The “Fnorm Average” value stood at 895.02 in series [1] (MST, ligand Conc 4.19922e-5 M); 893.94 in series [1] (MST, ligand Conc 8.39844e-5 M); 894.55 in series [1] (MST, ligand Conc 0.000167969 M); 893.65 in series [1] (MST, ligand Conc 0.000335937 M); 895.68 in series [1] (MST, ligand Conc 0.000671875 M); 895.81 in series [1] (MST, ligand Conc 0.00134375 M). Further, the “Fnorm Average” value in series [1] (MST, ligand Conc 0.0026875 M) is on record as 897.59; in series [1] (MST, ligand Conc 0.005375 M), 898.85; in series [1] (MST, ligand Conc 0.01075 M), 901.30.

B1: dWT: enzymatically deglycosylated full-length WT CuGE (protein)
chain: QASAPQWGQCGGIGWTGPTACPSGWACQQLNAYYSQCLQGAAPAPARTTAAPPPPPATTAAPPPPTTSAPTGSSPVAGACGAIASTVPNYNNAKLPDPFTFANGTALRTKADWSCRRAEISALIQNYEAGTLPPKPPVVTASFSKSGNTGTLAITAGLSNSQTIKFSPTISYPSGTPPANGWPLIIAYEGGSIPIPAGVATLTYSNSDMAQQNSASSRGQGLFYQLYGSTHSASAMTAWVWGVSRIIDALEMTPTAQINTQRIGVTGCSRDGKGALMAGAFEERIALTIPQESGSGGDACWRLSKYEIDNGNQVQDAVEIVGENVWFSTNFNNYVQKLPTVPEDHHLLAAMVAPRAMISFENTDYLWLSPMSSFGCMTAAHTVWQGLGIADSHGFAQVGGHAHCAWPSSLTPQLNAFINRFLLDQSATTNVFTTNNQFGKVQWNAANWITWTTPTLT
modifications: N-glycosylation at N104 trimmed with Endo H; O-glycosylation in the linker region trimmed with alpha-1-2,3,6 mannosidase; left off: c-myc epitope, C-terminal, state not stated | His6, C-terminal, stat
notes: enzymatically deglycosylated full-length WT CuGE
As for B1, the “Ti, single measurements” value in series [4] (individual replicates) is 75.9 °C and 75.7 °C and 75.8 °C. The “Ti, apparent thermal unfolding temperature (mean)” value in series [4] (protein 0.07–0.3 mg mL^−1, intrinsic fluorescence) amounted to 75.8 °C.
